Patent US7553821B2, “Methods for selectively modulating survivin apoptosis pathways” (Yale University, priority 2000, dated 2009)

What was measured:
[1] = target: T1, caspase-8 (Homo sapiens, UniProt Q14790); experiment: Co-immunoprecipitation of survivin and caspase-8 from HeLa cells; type: binding; details: transfected HeLa cells
T1 construct: endogenous in cells; host or cells: HeLa
Procedure: The experimental conditions are the same as in A, except that HA-survivin and HA-survivin(T34A) immunoprecipitates were separately immunoblotted with antibodies to caspase-8 or HA. S, supernatant of HA-survivin immunoprecipitate. Arrow, position of ˜55 kDa proform caspase-8.
Transfection experiments. For transient transfection, HeLa cells in C-6 tissue culture plates (Costar, Cambridge, Mass.) at ˜60-70% confluency, were incubated in 1 ml of serum-free OptiMEM medium (Life Technologies, Gaithersburg, Md.) for 20 min, and transfected with 2.5 μg of the various plasmid cDNAs plus 9 μl Lipofectamine (Life Technologies). After a 5 h incubation at 37° C., the mixture was aspirated and substituted with complete growth medium for 48-72 h. To generate stable YUSAC-2 transfectants, a survivin(T34A) cDNA was inserted into the HindIII-SpeI sites of the pTet-splice vector (Dr. D. Schatz, Yale University School of Medicine), downstream of the regulatory sequences of the Tet-resistance operon (TetO). YUSAC-2 cells were transfected with 0.8 μg pTet-T34A, 0.8 μg of the transactivation/selection plasmid ptTA-Neo and 5 μl Lipofectamine in 1 ml of OptiMem. […] Gated GFP-expressing cells were analyzed for DNA content by flow cytometry on a FACSort (Becton Dickinson, San Jose, Calif.) using a Cell Quest software. […]

[2] = tested on: YUSAC-2 human melanoma cells; experiment: Melanoma tumor formation in CB.17 immunodeficient mice; type: in vivo, CB.17 SCID/beige mice
Procedure: To determine whether interference with survivin function by regulated expression of survivin antagonists could block melanoma tumor formation in CB.17 immunodeficient mice, mice were monitored for 8 weeks following subcutaneous injection, and tumor measurements taken at 4- and 8-week time points (Table I). It was determined that YUSAC-2 cells consistently form localized tumors in 6 to 8-week-old female CB.17 SCID/beige mice (Taconic Farms, Germantown, N.Y.) approximately 3-4 weeks following subcutaneous injection of 1-3×10^6 cells. Animals were monitored for up to 4 months, and neither mortality nor gross metastasis is associated with increasing tumor size (up to 5000 mm^3) or ulceration. One day prior to injection, mice were shaved on the right flank, and the regular drinking water was replaced with 5% sucrose alone or containing […] tet as described (Shockett et al., 1995). Cells were harvested in log-phase growth, washed twice in PBS, resuspended in PBS (12×10^6 cells per ml) and injected (0.25 ml, 3×10^6 cells) subcutaneously. The drinking water was changed every 2-3 days. Tumor size was determined by the product of two perpendicular diameters and the height above the skin surface.
Table 1. Summary of tumor formation for all animals. CB.17 mice were injected with cells and tet was added or withheld from the drinking water. […]

T1 sequence (Q14790 whole entry): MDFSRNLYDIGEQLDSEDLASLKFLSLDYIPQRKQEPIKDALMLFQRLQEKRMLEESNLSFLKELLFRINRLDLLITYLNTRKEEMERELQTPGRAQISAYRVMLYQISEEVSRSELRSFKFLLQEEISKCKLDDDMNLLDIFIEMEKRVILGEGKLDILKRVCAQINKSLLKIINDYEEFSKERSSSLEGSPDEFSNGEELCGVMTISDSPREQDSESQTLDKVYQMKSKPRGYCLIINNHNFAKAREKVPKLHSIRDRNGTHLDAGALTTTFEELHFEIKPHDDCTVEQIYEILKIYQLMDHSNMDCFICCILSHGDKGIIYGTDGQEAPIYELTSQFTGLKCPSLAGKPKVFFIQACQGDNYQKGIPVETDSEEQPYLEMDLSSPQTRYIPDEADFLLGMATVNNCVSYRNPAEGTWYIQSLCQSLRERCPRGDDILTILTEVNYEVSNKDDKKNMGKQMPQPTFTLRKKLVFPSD

survivin(T34A): dominant-negative, non-phosphorylatable survivin mutant with Thr34→Ala substitution, expressed from transfected cDNA (also HA- or GFP-tagged)
caspase-8 in immunoprecipitates by Western blotting [1]: did not contain another upstream initiator caspase, caspase-8 | Tumor size (mean ± standard deviation, only mice with tumors) ([2]; 8 Weeks, F5.C4 cells s.c., tet absent): 278 ± 116 mm^3 | size and onset of tumors in tet-deprived animals compared to animals given tet ([2]; F5.C4 cells, two tet-deprived animals with tumors): considerably smaller in size and appeared with a markedly delayed onset
